Key:
[1] = tested on: female Sprague Dawley rats; assay: Uterine wet weight in the post-menopausal (ovariectomized rat) model, 4 days of oral dosing; type: in vivo; settings: % increase versus the ovariectomized controls, * p<0.05
Description: (§1) In the examples illustrating the methods, a post-menopausal model was used in which effects of different treatments upon circulating lipids were determined.
(§2) Seventy-five day old female Sprague Dawley rats (weight range of 200 to 225g) are obtained from Charles River Laboratories (Portage, MI). The animals are either bilaterally ovariectomized (OVX) or exposed to a Sham surgical procedure at Charles River Laboratories, and then shipped after one week. Upon arrival, they are housed in metal hanging cages in groups of 3 or 4 per cage and have ad libitum access to food (calcium content approximately 0.5%) and water for one week. Room temperature is maintained at 22.2° ± 1.7° C with a minimum relative humidity of 40%. The photoperiod in the room is 12 hours light and 12 hours dark.
(§3) Dosing Regimen Tissue Collection. After a one week acclimation period (therefore, two weeks post-OVX) daily dosing with test compound is initiated. 17α-ethynyl estradiol or the test compound are given orally, unless otherwise stated, as a suspension in 1% carboxymethylcellulose or dissolved in 20% cyclodextrin. Animals are dosed daily for 4 days. Following the dosing regimen, animals are weighed and anesthetized with a ketamine: Xylazine (2:1, V:V) mixture and a blood sample is collected by cardiac puncture. The animals are then sacrificed by asphyxiation with CO2, the uterus is removed through a midline incision, and a wet uterine weight is determined.

[2] = tested on: Uterine Eosinophil Peroxidase (EPO); assay: Uterine Eosinophil Peroxidase (EPO) Assay in ovariectomized rats; type: in vivo; set-up: unit not given here; settings: Vmaximum, * p<0.05
Text: as §2, §3
Uterine Eosinophil Peroxidase (EPO) Assay. Uteri are kept at 4° C until time of enzymatic analysis. The uteri are then homogenized in 50 volumes of 50 mM Tris buffer (pH - 8.0) containing 0.005% Triton X-100. Upon addition of 0.01% hydrogen peroxide and 10 mM o-phenylenediamine (final concentrations) in Tris buffer, increase in absorbance is monitored for one minute at 450 nm. The presence of eosonophils in the uterus is an indication of estrogenic activity of a compound. The maximal velocity of a 15 second interval is determined over the initial, linear portion of the reaction curve.

[3] = tested on: Serum cholesterol; assay: Serum cholesterol analysis in ovariectomized rats; type: in vivo; settings: decrease versus ovariectomized controls, * p<0.05
Description: as §1, §2, §3
Cholesterol Analysis. Blood samples are allowed to clot at ambient temperature for 2 hours, and serum is obtained following centrifugation for 10 minutes at 3000 rpm. Serum cholesterol is determined using a Boehringer Mannheim Diagnostics high performance cholesterol assay. Briefly, the cholesterol is oxidized to cholest-4-en-3-one and hydrogen peroxide. The hydrogen peroxide is then reacted with phenol and 4-aminophenazone in the presence of peroxidase to produce a p-quinone imine dye, which is read spectrophotemetrically at 500 nm. Cholesterol concentration is then calculated against a standard curve.

[4] = tested on: MCF-7 breast adenocarcinoma cells (ATCC HTB 22); assay: MCF-7 Proliferation Assay (tritiated thymidine uptake); type: cell-based; settings: MCF-7 cells, 48 hours with drug, tritiated thymidine pulse 4 hours
Description: MCF-7 Proliferation Assay
MCF-7 breast adenocarcinoma cells (ATCC HTB 22) were maintained in MEM (minimal essential medium, phenol red-free, Sigma, St. Louis, MO) supplemented with 10% fetal bovine serum (FBS) (V/V), L-glutamine (2 mM), sodium pyruvate (1 mM), HEPES {(N-[2-hydroxyethyl]piperazine-N'-[2-ethanesulfonic acid] 10 mM}, non-essential amino acids and bovine insulin (1 ug/mL) (maintenance medium). Ten days prior to assay, MCF-7 cells were switched to maintenance medium supplemented with 10% dextran coated charcoal stripped fetal bovine serum (DCC-FBS) assay medium) in place of 10% FBS to deplete internal stores of steroids. MCF-7 cells were removed from maintenance flasks using cell dissociation medium [Ca++/Mg++ free HBSS (phenol red-free) supplemented with 10 mM HEPES and 2 mM EDTA]. Cells were washed twice with assay medium and adjusted to 80,000 cells/mL. Approximately […] (8,000 cells) were added to flat-bottom microculture wells (Costar 3596) and incubated at 37° C in a 5% CO2 humidified incubator for 48 hours to allow for cell adherence and equilibration after transfer. Serial dilutions of drugs or DMSO as a diluent control were prepared in assay medium and […] to triplicate microcultures followed by […] assay medium for a final volume of […]. After an additional 48 hours at 37° C in a 5% CO2 humidified incubator, microcultures were pulsed with tritiated thymidine (1 µCi/well) for 4 hours. Cultures were terminated by freezing at -70° C for 24 hours followed by thawing and harvesting of microcultures using a Skatron Semiautomatic Cell Harvester. Samples were counted by liquid scintillation using a Wallac BetaPlace β counter. The compounds of formula I are active and potent in inhibiting the tumor cell growth, see: Table 2.

Uterine Wt. (% Inc.) ([1]; dose printed as 0. mg/kg PO)	Uterine EPO (Vmax) ([2]; dose printed as 0. mg/kg PO)	Uterine Wt. (% Inc.) ([1]; 0.1 mg/kg PO)	Uterine Wt. (% Inc.) ([1]; 1 mg/kg PO)	Uterine Wt. (% Inc.) ([1]; 10 mg/kg PO)	Uterine EPO (Vmax) ([2]; 0.1 mg/kg PO)	Uterine EPO (Vmax) ([2]; 1 mg/kg PO)	Uterine EPO (Vmax) ([2]; 10 mg/kg PO)	IC50 ([4]; Homo sapiens, MCF7)	IC50 [4]	Structure (SMILES)	Serum Cholesterol (% Dec.) ([3]; dose printed as 0. mg/kg PO)	Serum Cholesterol (% Dec.) ([3]; 0.1 mg/kg PO)	Serum Cholesterol (% Dec.) ([3]; 1 mg/kg PO)	Serum Cholesterol (% Dec.) ([3]; 10 mg/kg PO)
171.2* %	142.4*									C#C[C@]1(O)CC[C@H]2[C@@H]3CCc4cc(O)ccc4[C@H]3CC[C@@]21C [EE2, 17-α-Ethynyl-estradiol, reference compound]	85.1* %			
		46.9* %	19.1%	45.2* %	4.5	4.8	7.5	0.04 µM		COC(=O)c1ccc2c(C(=O)c3ccc(OCCN4CCCCC4)cc3)c(-c3ccc(O)cc3)sc2c1.Cl [Example 1, [2-(4-Hydroxyphenyl)-6-methoxycarbonylbenzo[b]thien-3-yl][4-[2-(1-piperidinyl)ethoxy]phenyl]methanone Hydrochloride]		-8.6%	42.5* %	56.1* %
		11.8%	21.7%	47.1* %	3.3	3.3	4.8		0.045 µM	CC(C)COC(=O)c1ccc2c(C(=O)c3ccc(OCCN4CCCCC4)cc3)c(-c3ccc(O)cc3)sc2c1 [Example 3]		-2.4%	8.7%	58.0* %
		18.8%	27.2%	29.6* %	3.3	3.0	3.6			Cl.O=C(O)c1ccc2c(C(=O)c3ccc(OCCN4CCCCC4)cc3)c(-c3ccc(O)cc3)sc2c1 [Example 4, [2-(4-Hydroxyphenyl)-6-carboxybenzo[b]thien-3-yl][4-[2-(1-piperidinyl)ethoxy]phenyl]methanone Hydrochloride]		0.6%	10.4%	44.9* %
		18.8%	51.8* %	69.4* %	1.2	2.1	5.4	0.06 µM		CC(=O)c1ccc2c(C(=O)c3ccc(OCCN4CCCCC4)cc3)c(-c3ccc(O)cc3)sc2c1 [Example 5, [2-(4-Hydroxyphenyl)-6-acetylbenzo[b]thien-3-yl][4-[2-(1-piperidinyl)ethoxy]phenyl]methanone]		-6.3%	20.4%	45.4* %
		14.3%	27.8%	22.5%	3.9	4.8	4.8	0.02 µM		C#Cc1ccc2c(C(=O)c3ccc(OCCN4CCCCC4)cc3)c(-c3ccc(O)cc3)sc2c1 [Example 6, [2-(4-Hydroxyphenyl)-6-ethynylbenzo[b]thien-3-yl][4-[2-(1-piperidinyl)ethoxy]phenyl]methanone]		39.4* %	58.7* %	65.8* %

Structure (SMILES)	Uterine Wt. (% Inc.) ([1]; dose printed as 0. mg/kg PO)	Uterine EPO (Vmax) ([2]; dose printed as 0. mg/kg PO)	Uterine Wt. (% Inc.) ([1]; 0.1 mg/kg PO)	Uterine Wt. (% Inc.) ([1]; 1 mg/kg PO)	Uterine Wt. (% Inc.) ([1]; 10 mg/kg PO)	Uterine EPO (Vmax) ([2]; 0.1 mg/kg PO)	Uterine EPO (Vmax) ([2]; 1 mg/kg PO)	Uterine EPO (Vmax) ([2]; 10 mg/kg PO)	IC50 ([4]; Homo sapiens, MCF7)	IC50 [4]	Serum Cholesterol (% Dec.) ([3]; dose printed as 0. mg/kg PO)	Serum Cholesterol (% Dec.) ([3]; 0.1 mg/kg PO)	Serum Cholesterol (% Dec.) ([3]; 1 mg/kg PO)	Serum Cholesterol (% Dec.) ([3]; 10 mg/kg PO)
CCCCOC(=O)c1ccc2c(C(=O)c3ccc(OCCN4CCCCC4)cc3)c(-c3ccc(O)cc3)sc2c1 [Example 2, [2-(4-Hydroxyphenyl)-6-n-butoxycarbonylbenzo[b]thien-3-yl][4-[2-(1-piperidinyl)ethoxy]phenyl]methanone]			19.4%	16.8%	52.5* %	2.4	0.0	4.8	0.045 µM			-1.2%	26.7%	55.6* %

Reference: patent publication EP0835871B1, “Benzo [b] thiophene compounds, intermediates, formulations, and methods” (ELI LILLY AND COMPANY, priority 1996, dated 1998)
